Reference: patent US8901307B2, “Chemical compounds 251” (AstraZeneca AB, priority 2008, dated 2014)
Structures can show the parent of a compound that is named as a salt. Where two headings read alike, the source gives them in different places.

Columns and labels:
[1] = target: T1, human His-PIM1 [2-313] (Homo sapiens, UniProt P11309); test: PIM1 in-vitro mobility shift assay (Caliper LC3000, FL-Ahx-Bad phosphorylation); format: biochemical; details: 1.5 h, read-out: PIM1 % I at 0.3 uM
T1 construct: purified human His-PIM1 [2-313] enzyme; His (N); purchased University of Dundee, Scotland; host or cells: baculovirus system
From the text: PIM1 In-Vitro Mobility Shift Assay
(§1) One may determine the activity of purified human His-PIM1 [2-313] enzyme in-vitro using a mobility shift assay on a Caliper LC3000 reader (Caliper, Mass.), which measures fluorescence of a phosphorylated and unphosphorylated FL-Ahx-Bad (FITC-(AHX)RSRHSSYPAGT-COOH, Primm 200606-00289, Primm Biotech, Mass.) and calculates a ratiometric value to determine percent turnover. One may express PIM1 (University of Dundee, Scotland) in baculovirus system with a typical yield of >85% purity.
(§2) One determines phosphorylation of the FL-Ahx-Bad in the presence and absence of the compound of interest. One preincubates 5 µl of Enzyme/Substrate/adenosine triphosphate (ATP) mix consisting of 2.4 nM PIM1, 3.6 uM FL-Ahx-Bad, and 240 uM ATP in 1.2× buffer with 2 ul of compound for 20 minutes at 25° C. One initiates reactions with 5 ul of Metal mix consisting of 24 mM MgCl2 in 1.2× buffer and incubated at 25° C. for 90 minutes and stops the reactions by addition of 5 ul of Stop mix consisting of 100 mM HEPES, 121 mM ethylenediamine tetraacetic acid, 0.8% Coatin Reagent 3 (Caliper, Mass.), and 0.01% Tween. One detects phosphorylated and unphosphorylated substrate by a Caliper LC3000 reader (Caliper, Mass.) in the presence of separation buffer consisting of 100 mM HEPES, 16 mM ethylenediamine tetraacetic acid, 0.1% Coatin Reagent 3 (Caliper, Mass.), 0.015% Brij-35, 5% DMSO, and 5.6 mM MgCl2. One may use the following separation conditions for a Caliper LC3000: −1.0 PSI, −2000 V upstream voltage, −400 V downstream voltage, 0.2 second sample sip, 45 second post sip, 10% laser strength.
The table 1 below provides the percent inhibition of PIM1 at 0.3 micromolar for Examples provided herein. Several examples were tested more than once. Variations in the experimental outcomes, negative values, or values over 100% inhibition are presumably due to experimental error inherent in the assay.

[2] = target: T2, human His-PIM2 [23-299] (Homo sapiens, UniProt Q9P1W9); test: PIM2 in-vitro mobility shift assay (Caliper LC3000, FL-Ahx-Bad phosphorylation); format: biochemical; details: 1.5 h; percent inhibition at 0.3 uM compound; read-out: PIM2 % I at 0.3 uM
T2 construct: purified human His-PIM2 [23-299] enzyme; His (N); host or cells: E. coli
From the text: PIM2 In-Vitro Mobility Shift Assay
as §1, with “His-PIM2 [23-299]” for “His-PIM1 [2-313]”, “PIM2 (produced at AstraZeneca, R&D Boston)” for “PIM1 (University of Dundee, Scotland)”, “E. coli cells” for “baculovirus system”, “>90%” for “>85%”
as §2, with “5 uL” for “5 µl”, “and 12” for “and 240”, “5 uL” for “5 ul”, “and incubates” for “and incubated”, “90 minutes. One” for “90 minutes and”, “stops” for “stops the”

[3] = percent inhibition at 0.3 uM compound

T1 sequence (P11309 2-313): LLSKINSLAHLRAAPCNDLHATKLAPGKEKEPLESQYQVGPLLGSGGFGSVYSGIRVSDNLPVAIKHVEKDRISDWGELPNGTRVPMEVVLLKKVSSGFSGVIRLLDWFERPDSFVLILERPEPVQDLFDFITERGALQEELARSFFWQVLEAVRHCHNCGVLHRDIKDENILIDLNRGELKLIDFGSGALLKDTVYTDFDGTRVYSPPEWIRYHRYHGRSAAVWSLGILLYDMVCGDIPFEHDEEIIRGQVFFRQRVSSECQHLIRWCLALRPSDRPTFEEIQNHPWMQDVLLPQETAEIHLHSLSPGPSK
T2 sequence (Q9P1W9 23-299): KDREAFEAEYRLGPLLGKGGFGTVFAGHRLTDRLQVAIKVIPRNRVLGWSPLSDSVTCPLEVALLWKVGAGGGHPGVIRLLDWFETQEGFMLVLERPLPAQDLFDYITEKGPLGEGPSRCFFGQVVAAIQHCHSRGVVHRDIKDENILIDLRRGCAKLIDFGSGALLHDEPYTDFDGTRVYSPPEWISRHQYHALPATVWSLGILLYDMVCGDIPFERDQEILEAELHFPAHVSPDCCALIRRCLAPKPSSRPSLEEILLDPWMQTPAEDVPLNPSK

| inhibition at 0.3 µM [1, 3] [%] | inhibition at 0.3 µM [2] [%] | Structure (SMILES) | inhibition at 0.3 µM [1] [%] |
| --- | --- | --- | --- |
| 92.3 | 82.1 | COc1cc(/C=C2\SC(=O)NC2=O)c(N2CCN(C(C)C)CC2)cc1OC [Example 53, (5Z)-5-{2-(4-isopropylpiperazin-1-yl)-4,5-dimethoxybenzylidene}-thiazolidine-2,4-dione] | – |
| 78.2 | 86.3 | NCCC(=O)N1CCN(c2ncccc2/C=C2\SC(=O)NC2=O)CC1 [Example 90, (Z)-5-((2-(4-(3-aminopropanoyl)piperazin-1-yl)pyridin-3-yl)methylene)thiazolidine-2,4-dione trifluoroacetate] | – |
| > 95 | 88.7 | NCCCCC(=O)N1CCCN(c2ccccc2/C=C2\SC(=O)NC2=O)CC1 [Example 103, (Z)-5-(2-(4-(5-aminopentanoyl)-1,4-diazepan-1-yl)benzylidene)thiazolidine-2,4-dione hydrochloride] | – |
| 89.4 | 57.3 | COc1cc(/C=C2\SC(=O)NC2=O)c(N2CC[C@@H](N(C)C)C2)cc1OC [Example 39, (R,Z)-5-(2-(3-(dimethylamino)pyrrrolidin-1-yl)-4,5-dimethoxybenzylidene)thiazolidine-2,4-dione] | – |
| > 95 | 67 | CN(C)[C@H]1CCN(c2ccc(C(F)(F)F)cc2C=C2SC(=O)NC2=O)C1 [Example 84H, (S)-5-(2-(3-(dimethylamino)pyrrolidin-1-yl)-5-(trifluoromethyl)benzylidene)thiazolidine-2,4-dione] | – |
| 10.8 | 16.7 | COc1cc(N)c(/C=C2\SC(=O)NC2=O)cc1OC [Example 152] | – |
| 81.8 | 28.1 | COc1ccc(OCCN2CCCCC2)c(/C=C2\SC(=O)NC2=O)c1 [Example 61, (Z)-5-(5-methoxy-2-(2-(piperidin-1-yl)ethoxy)benzylidene)thiazolidine-2,4-dione] | – |
| > 95 | > 95 | COc1cccc(/C=C2\SC(=O)NC2=O)c1N1CCN(C(=O)CCN)CC1 [Example 94, (Z)-5-(2-(4-(3-aminopropanoyl)piperazin-1-yl)-3-methoxybenzylidene)thiazolidine-2,4-dione hydrochloride] | – |
| 42.5 | 10.8 | Cn1ccnc1C(=O)N[C@H]1CCN(c2c(Cl)cccc2/C=C2\SC(=O)NC2=O)C1 [Example 135, (S,Z)-N-(1-(2-chloro-6-((2,4-dioxothiazolidin-5-ylidene)methyl)phenyl)pyrrolidin-3-yl)-1-methyl-1H-imidazole-2-carboxamide] | – |
| > 95 | 68.4 | CN(C)CCCN(C)c1c(Cl)cc(C(F)(F)F)cc1/C=C1\SC(=O)NC1=O [Example 25] | – |
| 92.8 | 23.3 | O=C1NC(=O)/C(=C/c2cc(C(F)(F)F)cc(Cl)c2N2CCC(N3CCCCC3)CC2)S1 [Example 31] | – |
| > 95 | > 95 | CN(C)[C@H]1CCN(c2c(Br)cccc2/C=C2\SC(=O)NC2=O)C1 [Example 33, (S,Z)-5-(3-bromo-2-(3-(dimethylamino)pyrrolidin-1-yl)benzylidene)thiazolidine-2,4-dione hydrochloride] | – |
| > 95 | 87.4 | COc1cc(/C=C2\SC(=O)NC2=O)c(N2CC[C@H](NCCCN)C2)cc1OC [Example 121, (S,Z)-5-(2-(3-(3-aminopropylamino)pyrrolidin-1-yl)-4,5-dimethoxybenzylidene)thiazolidine-2,4-dione hydrochloride] | – |
| 79.8 | 31.7 | COc1ccc(OCCCNC(C)C)c(C=C2SC(=O)NC2=O)c1 [Example 150] | – |
| > 95 | > 95 | O=C1NC(=O)/C(=C/c2ccccc2N2CCN(C(=O)C3CNC3)CC2)S1 [Example 117, (5Z)-5-{2-[4-(azetidin-3-ylcarbonyl)piperazin-1-yl]benzylidene}-1,3-thiazolidine-2,4-dione hydrochloride] | – |
| 12.9 | < 5 | O=C1NC(=O)/C(=C/c2cc(C(F)(F)F)cc(Cl)c2N2CCN(c3ccc(Cl)cc3F)CC2)S1 [Example 15] | – |
| < 5 | < 5 | O=C1NC(=O)/C(=C/c2cc(C(F)(F)F)cc(Cl)c2N2CCN(Cc3ccccc3Cl)CC2)S1 [Example 18] | – |
| 90.8 | 15.6 | CC(C)(C)N1CCN(c2c(Cl)cc(C(F)(F)F)cc2/C=C2\SC(=O)NC2=O)CC1 [Example 30] | – |
| > 95 | 89.6 | NCc1ccc(CN[C@@H]2CCCN(c3c(Cl)cccc3/C=C3\SC(=O)NC3=O)C2)cc1 [Example 122R, (R,Z)-5-(2-(3-(4-(aminomethyl)benzylamino)piperidin-1-yl)-3-chlorobenzylidene)thiazolidine-2,4-dione hydrochloride] | – |
| > 95 | > 95 | N[C@H]1CN(c2c(Cl)cccc2/C=C2\SC(=O)NC2=O)C[C@@H]1O [Example 122T, (Z)-5-(2-((3S,4S)-3-amino-4-hydroxypyrrolidin-1-yl)-3-chlorobenzylidene)thiazolidine-2,4-dione hydrochloride] | – |
| 45.3 | 18.9 | COc1cc(/C=C2\SC(=O)NC2=O)c(-c2cccnc2)cc1OC [Example 65, (Z)-5-(4,5-dimethoxy-2-(pyridin-3-yl)benzylidene)thiazolidine-2,4-dione] | – |
| 58.8 | 23.3 | COc1cc(/C=C2\SC(=O)NC2=O)c(N2CCC(O)CC2)cc1OC [Example 42, (5Z)-5-[2-(4-hydroxypiperidine-1-yl)-4,5-dimethoxybenzylidene]-1,3-thiazolidine-2,4-dione] | – |
| 87.4 | 52.4 | CN(C)CCN(C)S(=O)(=O)c1ccc(-c2ccccc2/C=C2\SC(=O)NC2=O)cc1 [Example 84F, (Z)-N-(2-(dimethylamino)ethyl)-2′-((2,4-dioxothiazolidin-5-ylidene)methyl)-N-methylbiphenyl-4-sulfonamide] | – |
| > 95 | 93.4 | O=C1NC(=O)/C(=C/c2cccc(Cl)c2N2CCC[C@@H](NCCO)C2)S1 [Example 133] | – |
| > 95 | > 95 | COc1cc(/C=C2\SC(=O)NC2=O)c(N2CCC(N)C2)cc1OC (stereo not drawn) [Example 118, (5Z)-5-[2-(3-aminopyrrolidin-1-yl)-4,5-dimethoxybenzylidene]-1,3-thiazolidine-2,4-dione hydrochloride] | – |

| Structure (SMILES) | inhibition at 0.3 µM [1, 3] [%] | inhibition at 0.3 µM [2] [%] | inhibition at 0.3 µM [1] [%] |
| --- | --- | --- | --- |
| O=C1NC(=O)/C(=C/c2cc(C(F)(F)F)ccc2N2CCNCC2)S1 [Example 87, (Z)-5-(2-(piperazin-1-yl)-5-(trifluoromethyl)benzylidene)thiazolidine-2,4-dione hydrochloride] | > 95 | 84.2 | – |
| N[C@@H]1CCCN(c2c(Br)cccc2/C=C2\SC(=O)NC2=O)C1 [Example 122F, (R,Z)-5-(2-(3-aminopiperidin-1-yl)-3-bromobenzylidene)thiazolidine-2,4-dione hydrochloride] | – | > 95 | > 95 |
